The values below are quoted from earlier work in patent US20150366978A1, “Compositions Containing Chondroitin Sulphate, Proteolytic Enzymes and Sulphydryl Compounds for Improving the Bioavailability of Chondroitin Sulphate” (GNOSIS S.P.A., priority 2013, published 2015).

For series [1] the following is noted: oral.

For the substance bromelain, the oral bioavailability entry is “around 40%”.

As for chondroitin sulphate [CS], the “total uptake of CS by the intestinal mucosa” value in series [1] (including oligosaccharides, % of the polysaccharide ingested) is recorded as 20-23%.

On to “chondroitin sulphate [high-molecular-weight CS]”, for which the “absorption of high-molecular-weight CS” value in series [1] (absorbed as intact polysaccharide) is 1-5%.
